Results published in ChEMBL document CHEMBL5543126, “Combinatorial Ubiquitination REal-time PROteolysis (CURE-PROs): A Modular Platform for Generating Reversible, Self-Assembling Bifunctional Targeted Degraders” (J Med Chem, 2024).
One block for each compound: values may come before it. Active and inactive are the calls of the source. The calls are words filed in the database; no cut-off is given here.

How the values were obtained:
[1] = biological target: T1, BRD4/E3 ubiquitin-protein ligase Mdm2 (Homo sapiens) (UniProt Q00987+O60885); assay: (§1) PROTAC activity at MDM2/BRD4 in human HCT-116 cells assessed as induction of BRD4 degradation incubated for 6 hrs in presence of MDM2 ligand based (4-((2-(4-((4S,5R)-4,5-bis(4-chlorophenyl)-2-(2-isopropoxy-4-methoxyphenyl)-4,5-dihydro-1H-imidazole-1-carbonyl)-2-oxopiperazin-1-yl)ethyl)carbamoyl)phenyl)boronic acid by Combinatorial Ubiquitination Real-time PROteolysis analysis; format: cell-based
T1 sequence (Q00987 whole entry, looked up, other chains not shown): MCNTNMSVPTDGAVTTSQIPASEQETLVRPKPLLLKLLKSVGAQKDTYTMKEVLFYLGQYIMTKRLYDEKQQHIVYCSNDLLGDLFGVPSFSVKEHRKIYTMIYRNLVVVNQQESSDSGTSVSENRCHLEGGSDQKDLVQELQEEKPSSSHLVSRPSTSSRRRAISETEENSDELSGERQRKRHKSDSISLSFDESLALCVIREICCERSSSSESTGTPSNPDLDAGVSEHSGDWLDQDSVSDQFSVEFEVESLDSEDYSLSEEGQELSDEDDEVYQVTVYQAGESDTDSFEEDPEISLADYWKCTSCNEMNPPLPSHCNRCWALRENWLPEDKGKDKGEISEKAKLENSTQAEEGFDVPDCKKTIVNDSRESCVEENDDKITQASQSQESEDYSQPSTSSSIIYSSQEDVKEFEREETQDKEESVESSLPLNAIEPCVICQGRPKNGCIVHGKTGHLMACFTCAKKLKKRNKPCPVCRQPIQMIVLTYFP

[2] = biological target: T1, BRD4/E3 ubiquitin-protein ligase Mdm2 (Homo sapiens); assay: as §1, with “activation” for “induction”, “caspase3/7” for “BRD4 degradation”; format: cell-based
NAMALVA [3] = assay: Antiproliferative activity against human NAMALVA cells assessed as reduction in cell viability incubated for 72 hrs in presence of MDM2 ligand based (4-((2-(4-((4S,5R)-4,5-bis(4-chlorophenyl)-2-(2-isopropoxy-4-methoxyphenyl)-4,5-dihydro-1H-imidazole-1-carbonyl)-2-oxopiperazin-1-yl)ethyl)carbamoyl)phenyl)boronic acid by celltiter-glo assay; format: functional
[4] = biological target: T1, BRD4/E3 ubiquitin-protein ligase Mdm2 (Homo sapiens); assay: as §1, with “as downregulation” for “as induction”, “of SLC19A1 level at 10 uM” for “of BRD4 degradation”, “for 24” for “for 6”, “by qPCR based” for “by”; format: cell-based
[5] = biological target: T2, Protein cereblon/Bromodomain-containing protein 4 (Homo sapiens) (UniProt O60885+Q96SW2); assay: PROTAC activity at BRD4/CRBN in human HeLa cells assessed as induction of BRD4 degradation in presence of N-((2-(2,6-dioxopiperidin-3-yl)-1,3-dioxoisoindolin-4-yl)methyl)-2,3-dihydroxybenzamide by Combinatorial Ubiquitination Real-time PROteolysis analysis; format: cell-based; details: dose 0.1-10 µM
T2 sequence (Q96SW2 whole entry, looked up, other chains not shown): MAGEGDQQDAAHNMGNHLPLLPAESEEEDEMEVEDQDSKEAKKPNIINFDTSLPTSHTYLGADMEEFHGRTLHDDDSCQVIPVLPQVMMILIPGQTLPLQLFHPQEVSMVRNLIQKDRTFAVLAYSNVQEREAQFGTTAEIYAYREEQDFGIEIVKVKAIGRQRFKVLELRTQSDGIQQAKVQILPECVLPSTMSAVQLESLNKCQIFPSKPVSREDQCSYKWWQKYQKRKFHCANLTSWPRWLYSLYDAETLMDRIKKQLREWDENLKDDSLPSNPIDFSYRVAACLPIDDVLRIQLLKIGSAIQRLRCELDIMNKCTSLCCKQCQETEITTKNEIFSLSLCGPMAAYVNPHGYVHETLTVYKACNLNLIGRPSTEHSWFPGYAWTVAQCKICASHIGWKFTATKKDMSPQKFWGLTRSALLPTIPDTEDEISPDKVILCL

[6] = biological target: T3, Protein cereblon/Bromodomain-containing protein 3 (Homo sapiens) (UniProt Q15059+Q96SW2); assay: (§2) PROTAC activity at BRD3/CRBN in human HeLa cells assessed as induction of BRD3 degradation at 10 uM in presence of CRBN ligand based N-((2-(2,6-dioxopiperidin-3-yl)-1,3-dioxoisoindolin-4-yl)methyl)-2,3-dihydroxybenzamide incubated for 24 hrs by Combinatorial Ubiquitination Real-time PROteolysis analysis; format: cell-based
T3 sequence (Q15059 2-726 limits assumed): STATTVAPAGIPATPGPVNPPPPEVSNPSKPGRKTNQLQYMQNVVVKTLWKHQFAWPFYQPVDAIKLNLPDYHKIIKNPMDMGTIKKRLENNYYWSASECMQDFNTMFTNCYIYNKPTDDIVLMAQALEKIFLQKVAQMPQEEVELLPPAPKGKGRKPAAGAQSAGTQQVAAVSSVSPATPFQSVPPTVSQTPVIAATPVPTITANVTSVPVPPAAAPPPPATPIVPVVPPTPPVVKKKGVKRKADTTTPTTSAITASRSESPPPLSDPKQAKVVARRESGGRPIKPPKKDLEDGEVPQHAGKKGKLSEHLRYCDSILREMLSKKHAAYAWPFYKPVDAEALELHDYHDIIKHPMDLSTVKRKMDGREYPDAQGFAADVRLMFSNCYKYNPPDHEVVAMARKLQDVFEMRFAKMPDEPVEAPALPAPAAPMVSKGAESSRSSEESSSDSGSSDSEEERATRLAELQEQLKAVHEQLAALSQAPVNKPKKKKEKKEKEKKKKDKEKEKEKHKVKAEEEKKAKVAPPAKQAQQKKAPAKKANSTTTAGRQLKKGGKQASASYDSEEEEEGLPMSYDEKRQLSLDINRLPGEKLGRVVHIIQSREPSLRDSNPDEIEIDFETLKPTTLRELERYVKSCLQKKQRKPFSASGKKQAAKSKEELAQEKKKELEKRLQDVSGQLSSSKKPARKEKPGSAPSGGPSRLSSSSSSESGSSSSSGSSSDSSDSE
T3 sequence (Q96SW2 whole entry partner): as the sequence (Q96SW2 whole entry, looked up, other chains not shown) above

[7] = biological target: T3, Protein cereblon/Bromodomain-containing protein 3 (Homo sapiens); assay: as §2, with “BRD2/CRBN” for “BRD3/CRBN”, “BRD2” for “BRD3”; format: cell-based
[8] = biological target: T3, Protein cereblon/Bromodomain-containing protein 3 (Homo sapiens); assay: PROTAC activity at BRD3/CRBN in human HeLa cells assessed as induction of BRD3 degradation at 10 uM in presence of BRD3 ligand based (3-((4-((4S)-4-(2-(ethylamino)-2-oxoethyl)-8-methoxy-1-methyl4Hbenzo[f][1,2,4]triazolo[4,3-a][1,4]diazepin-6-yl)phenyl)thio)phenyl)boronic acid incubated for 24 hrs by Combinatorial Ubiquitination Real-time PROteolysis analysis; format: cell-based
[9] = biological target: T2, Protein cereblon/Bromodomain-containing protein 4 (Homo sapiens); assay: PROTAC activity at BRD4/CRBN in human HeLa cells assessed as induction of BRD4 degradation at 10 uM incubated for 24 hrs in presence of JQ1 by Western blot analysis; format: cell-based
[10] = biological target: T2, Protein cereblon/Bromodomain-containing protein 4 (Homo sapiens); assay: PROTAC activity at BRD4/CRBN in human HeLa cells assessed as induction of BRD4 degradation at 10 uM incubated for 24 hrs in presence of BRD4 based ligand (3-((4S)-6-(4-chlorophenyl)-4-(2-(ethylamino)-2-oxoethyl)-1-methyl4H-benzo[f][1,2,4]triazolo[4,3-a][1,4]diazepin-8-yl)phenyl)boronic acid by Combinatorial Ubiquitination Real-time PROteolysis analysis; format: cell-based
BRD2/CRBN (Homo sapiens) = assay: PROTAC activity at BRD2/CRBN in human HeLa cells assessed as induction of BRD2 degradation at 10 uM in presence of BRD3 ligand based (3-((4-((4S)-4-(2-(ethylamino)-2-oxoethyl)-8-methoxy-1-methyl4Hbenzo[f][1,2,4]triazolo[4,3-a][1,4]diazepin-6-yl)phenyl)thio)phenyl)boronic acid incubated for 24 hrs …
[11] = biological target: T1, BRD4/E3 ubiquitin-protein ligase Mdm2 (Homo sapiens); assay: PROTAC activity at MDM2/BRD4 in human HCT-116 cells assessed as induction of BRD4 degradation incubated for 6 hrs; format: cell-based
[12] = biological target: T1, BRD4/E3 ubiquitin-protein ligase Mdm2 (Homo sapiens); assay: (§3) PROTAC activity at MDM2/BRD4 in human HCT-116 cells assessed as induction of BRD4 degradation incubated for 6 hrs in presence of BRD4 ligand based (86)-N-(2-(2-(((4S)-6-(4-chlorophenyl)-4-(2-(ethylamino)-2-oxoethyl)-1-methyl-4H-benzo[f][1,2,4]triazolo[4,3-a][1,4]diazepin-8-yl)oxy)ethoxy)ethyl)-2,3-dihydroxybenzamide by Combinatorial Ubiquitination Real-time PROteolysis analysis; format: cell-based
[13] = biological target: T1, BRD4/E3 ubiquitin-protein ligase Mdm2 (Homo sapiens); assay: as §3, with “activation” for “induction”, “caspase 3/7” for “BRD4 degradation”; format: cell-based
NAMALVA [14] = assay: Antiproliferative activity against human NAMALVA cells assessed as reduction in cell viability incubated for 72 hrs by celltiter-glo assay; format: functional, cell-based
NAMALVA [15] = assay: Antiproliferative activity against human NAMALVA cells assessed as reduction in cell viability incubated for 72 hrs in presence of BRD4 ligand based (86)-N-(2-(2-(((4S)-6-(4-chlorophenyl)-4-(2-(ethylamino)-2-oxoethyl)-1-methyl-4H-benzo[f][1,2,4]triazolo[4,3-a][1,4]diazepin-8-yl)oxy)ethoxy)ethyl)-2,3-dihydroxybenzamide by celltiter-glo assay; format: functional
[16] = biological target: T1, BRD4/E3 ubiquitin-protein ligase Mdm2 (Homo sapiens); assay: PROTAC activity at MDM2/BRD4 in human HCT-116 cells assessed as downregulation of SLC19A1 level at 10 uM incubated for 24 hrs by qPCR analysis; format: cell-based
[17] = biological target: T1, BRD4/E3 ubiquitin-protein ligase Mdm2 (Homo sapiens); assay: PROTAC activity at MDM2/BRD4 in human HCT-116 cells assessed as downregulation of SLC19A1 level at 10 uM incubated for 24 hrs in presence of BRD4 ligand based (86)-N-(2-(2-(((4S)-6-(4-chlorophenyl)-4-(2-(ethylamino)-2-oxoethyl)-1-methyl-4H-benzo[f][1,2,4]triazolo[4,3-a][1,4]diazepin-8-yl)oxy)ethoxy)ethyl)-2,3-dihydroxybenzamid by qPCR based Combinatorial Ubiquitination Real-time PROteolysis analysis; format: cell-based
[18] = biological target: T2, Protein cereblon/Bromodomain-containing protein 4 (Homo sapiens); assay: PROTAC activity at BRD4/CRBN in human HeLa cells assessed as induction of BRD4 degradation at 0.1 to 10 uM in presence of N-((2-(2,6-dioxopiperidin-3-yl)-1,3-dioxoisoindolin-4-yl)methyl)-2,3-dihydroxybenzamide by Combinatorial Ubiquitination Real-time PROteolysis analysis; format: cell-based; details: dose 0.1-10 µM
[19] = biological target: von Hippel-Lindau disease tumor suppressor/Bromodomain-containing protein 4 (Homo sapiens, UniProt O60885+P40337); assay: PROTAC activity at BRD4/VHL in human MCF7 cells assessed as reduction in BRD4 level incubated for 24 hrs in presence of VHL based ligand (2S,4R)-1-((S)-2-(3,4-dihydroxybenzamido)-3,3-dimethylbutanoyl)-4-hydroxy-N-(4-(4-methylthiazol-5-yl)benzyl)pyrrolidine-2-carboxamide by Western blot based Combinatorial Ubiquitination Real-time PROteolysis analysis; format: cell-based
Sequence of von Hippel-Lindau disease tumor suppressor/Bromodomain-containing protein 4 (P40337 whole entry, looked up, other chains not shown): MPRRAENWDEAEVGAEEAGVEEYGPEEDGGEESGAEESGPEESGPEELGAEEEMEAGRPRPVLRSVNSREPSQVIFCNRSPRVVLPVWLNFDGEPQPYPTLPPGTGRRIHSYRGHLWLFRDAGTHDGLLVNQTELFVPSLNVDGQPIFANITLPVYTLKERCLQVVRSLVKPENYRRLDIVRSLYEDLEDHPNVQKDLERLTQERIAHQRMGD

[20] = biological target: T2, Protein cereblon/Bromodomain-containing protein 4 (Homo sapiens); assay: PROTAC activity at BRD4/CRBN in human HeLa cells assessed as induction of BRD4 degradation at 10 uM incubated for 24 hrs in presence of CRBN based ligand N-((2-(2,6-dioxopiperidin-3-yl)-1,3-dioxoisoindolin-4-yl)methyl)-2,3-dihydroxybenzamide by Combinatorial Ubiquitination Real-time PROteolysis analysis; format: cell-based

Activity [1]: Active
Activity [2]: Active
Activity [4]: Active
SMILES: COc1ccc(C2=N[C@H](c3ccc(Cl)cc3)[C@@H](c3ccc(Cl)cc3)N2C(=O)N2CCN(CCNC(=O)c3ccc(B(O)O)cc3)C(=O)C2)c(OC(C)C)c1
IC50 (NAMALVA [3]): 724 nM

SMILES: CCNC(=O)C[C@@H]1N=C(c2ccc(Sc3cccc(B(O)O)c3)cc2)c2cc(OC)ccc2-n2c(C)nnc21
Activity [5]: Dose-Dependent Effect
Activity [6]: Active
Activity [7]: Active

Activity [8]: Active
Activity [9]: inactive
Activity [10]: Active
Activity (BRD2/CRBN (Homo sapiens)): Active
SMILES: O=C1CCC(N2C(=O)c3cccc(CNC(=O)c4cccc(O)c4O)c3C2=O)C(=O)N1 (configuration not stated)

SMILES: CCNC(=O)C[C@@H]1N=C(c2ccc(Cl)cc2)c2cc(OCCOCCNC(=O)c3cccc(O)c3O)ccc2-n2c(C)nnc21
Activity [11]: inactive
Activity [12]: Active
Activity [13]: Active
IC50 (NAMALVA [14]): 51300 nM
IC50 (NAMALVA [15]): 724 nM
Activity [16]: inactive
Activity [17]: Active

SMILES: CCNC(=O)C[C@@H]1N=C(c2ccc(Sc3ccccc3)cc2)c2cc(OC)ccc2-n2c(C)nnc21
Activity [18]: inactive

Activity [19]: inactive
SMILES: Cc1ncsc1-c1ccc(CNC(=O)[C@@H]2C[C@@H](O)CN2C(=O)[C@@H](NC(=O)c2ccc(O)c(O)c2)C(C)(C)C)cc1

SMILES: CCNC(=O)C[C@@H]1N=C(c2ccc(Cl)cc2)c2cc(-c3cccc(B(O)O)c3)ccc2-n2c(C)nnc21
Activity [9]: inactive
Activity [20]: Active
